Test results: publication PMC7827406, “Structure–Activity Relationship (SAR) Study of Spautin-1 to Entail the Discovery of Novel NEK4 Inhibitors” (International Journal of Molecular Sciences, 2021)
Where two headings read alike, the source gives them in different places.

Tests used:
Assay in all cases: biochemical
Design in all cases: Eurofins KinaseProfiler full panel at Km ATP, residual kinase activity (%) relative to DMSO
[1] = biological target: T1, CHK2(R145W)(h) (Homo sapiens, UniProt O96017, R145W)
T1 construct: gene CHEK2
T1 sequence (O96017 whole entry R145W): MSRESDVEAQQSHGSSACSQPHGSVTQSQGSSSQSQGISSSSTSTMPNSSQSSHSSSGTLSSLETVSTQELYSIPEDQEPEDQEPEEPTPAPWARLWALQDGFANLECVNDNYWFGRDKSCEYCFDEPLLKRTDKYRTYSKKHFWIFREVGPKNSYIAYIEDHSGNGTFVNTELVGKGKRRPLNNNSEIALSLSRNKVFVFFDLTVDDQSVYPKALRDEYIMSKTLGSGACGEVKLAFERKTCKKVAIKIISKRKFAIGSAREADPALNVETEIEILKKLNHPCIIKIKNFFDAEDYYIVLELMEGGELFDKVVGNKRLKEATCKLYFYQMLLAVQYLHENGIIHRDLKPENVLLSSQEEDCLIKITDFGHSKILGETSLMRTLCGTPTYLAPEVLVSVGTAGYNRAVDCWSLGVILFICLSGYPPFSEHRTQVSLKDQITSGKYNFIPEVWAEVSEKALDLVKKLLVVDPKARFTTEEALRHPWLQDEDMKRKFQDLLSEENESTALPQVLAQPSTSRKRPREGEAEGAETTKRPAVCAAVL
In short: (§1)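 Compounds screened at 10 µM in radiometric kinase activity assays at Km ATP, reported as remaining kinase activity (%). A KINOMEscan competition-binding screen at 10 µM measured DNA-tagged kinase retained on immobilized active-site ligand by qPCR.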

[2] = biological target: T2, MST4(h) (Homo sapiens, UniProt Q9P289)
T2 construct: gene STK26
T2 sequence (Q9P289 whole entry): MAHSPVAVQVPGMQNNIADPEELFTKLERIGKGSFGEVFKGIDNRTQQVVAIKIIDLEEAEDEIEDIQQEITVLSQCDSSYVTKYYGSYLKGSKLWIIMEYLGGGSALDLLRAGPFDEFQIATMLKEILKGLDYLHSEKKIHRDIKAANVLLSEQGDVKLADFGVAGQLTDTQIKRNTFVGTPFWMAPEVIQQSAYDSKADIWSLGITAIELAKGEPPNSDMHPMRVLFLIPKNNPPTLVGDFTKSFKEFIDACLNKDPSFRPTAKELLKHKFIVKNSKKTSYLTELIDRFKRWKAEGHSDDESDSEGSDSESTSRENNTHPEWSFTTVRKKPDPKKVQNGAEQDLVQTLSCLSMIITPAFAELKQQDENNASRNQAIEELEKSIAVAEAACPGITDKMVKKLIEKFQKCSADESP
In short: as §1

[3] = biological target: T3, NUAK2(h) (Homo sapiens, UniProt Q9H093)
T3 sequence (Q9H093 1-628): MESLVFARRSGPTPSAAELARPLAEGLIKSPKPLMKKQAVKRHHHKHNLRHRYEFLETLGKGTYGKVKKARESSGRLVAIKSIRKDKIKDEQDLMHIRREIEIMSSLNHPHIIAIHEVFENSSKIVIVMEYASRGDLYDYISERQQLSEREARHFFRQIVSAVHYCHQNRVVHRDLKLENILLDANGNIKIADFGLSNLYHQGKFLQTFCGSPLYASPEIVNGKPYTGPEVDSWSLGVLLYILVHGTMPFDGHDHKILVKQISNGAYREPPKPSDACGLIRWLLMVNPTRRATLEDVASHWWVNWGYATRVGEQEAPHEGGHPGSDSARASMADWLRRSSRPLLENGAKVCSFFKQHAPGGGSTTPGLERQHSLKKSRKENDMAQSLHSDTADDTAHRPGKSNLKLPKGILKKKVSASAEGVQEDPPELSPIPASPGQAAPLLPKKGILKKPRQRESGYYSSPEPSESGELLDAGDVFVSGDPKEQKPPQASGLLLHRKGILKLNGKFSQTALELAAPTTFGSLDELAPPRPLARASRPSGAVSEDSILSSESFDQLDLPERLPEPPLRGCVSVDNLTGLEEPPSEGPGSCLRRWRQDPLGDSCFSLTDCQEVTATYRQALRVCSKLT
In short: as §1

[4] = biological target: T4, PRKG2(h) (Homo sapiens, UniProt Q13237)
T4 sequence (Q13237 1-762): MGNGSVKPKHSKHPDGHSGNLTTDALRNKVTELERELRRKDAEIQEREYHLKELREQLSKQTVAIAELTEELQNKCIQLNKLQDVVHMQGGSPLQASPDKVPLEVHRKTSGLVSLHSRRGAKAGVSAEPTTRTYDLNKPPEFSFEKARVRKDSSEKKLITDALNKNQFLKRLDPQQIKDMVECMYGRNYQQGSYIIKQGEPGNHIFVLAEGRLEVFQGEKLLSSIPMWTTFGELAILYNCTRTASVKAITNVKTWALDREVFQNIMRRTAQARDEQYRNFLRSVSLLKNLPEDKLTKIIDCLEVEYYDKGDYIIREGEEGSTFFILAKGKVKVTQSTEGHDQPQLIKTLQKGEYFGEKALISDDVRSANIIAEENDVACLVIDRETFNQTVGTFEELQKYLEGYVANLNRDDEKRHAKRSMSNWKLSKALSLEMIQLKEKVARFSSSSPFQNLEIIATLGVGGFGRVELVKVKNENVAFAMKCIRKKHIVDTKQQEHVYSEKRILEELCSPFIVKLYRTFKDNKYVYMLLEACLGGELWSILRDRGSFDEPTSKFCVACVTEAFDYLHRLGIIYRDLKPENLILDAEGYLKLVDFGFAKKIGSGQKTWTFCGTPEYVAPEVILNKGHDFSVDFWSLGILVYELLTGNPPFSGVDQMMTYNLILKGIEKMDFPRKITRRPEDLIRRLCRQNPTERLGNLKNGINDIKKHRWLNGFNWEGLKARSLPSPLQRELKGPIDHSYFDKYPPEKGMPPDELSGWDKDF
In short: as §1

[5] = biological target: T5, SAPK2a(h) (Homo sapiens, UniProt Q16539)
T5 construct: gene MAPK14
T5 sequence (Q16539 whole entry): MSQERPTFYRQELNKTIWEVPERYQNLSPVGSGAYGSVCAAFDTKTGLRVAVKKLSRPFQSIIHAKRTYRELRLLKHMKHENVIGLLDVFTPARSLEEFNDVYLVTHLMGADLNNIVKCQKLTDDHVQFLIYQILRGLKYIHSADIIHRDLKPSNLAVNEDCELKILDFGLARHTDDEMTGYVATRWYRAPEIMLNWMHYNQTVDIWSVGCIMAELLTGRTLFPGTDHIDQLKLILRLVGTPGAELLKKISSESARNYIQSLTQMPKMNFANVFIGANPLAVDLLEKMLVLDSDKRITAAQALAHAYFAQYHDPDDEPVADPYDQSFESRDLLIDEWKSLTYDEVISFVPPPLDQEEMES
In short: as §1

[6] = read-out: Residual activity (%) Spautin-1 5aa
[7] = read-out: Residual activity (%) 5as
[8] = read-out: Residual activity (%) 5at
[9] = read-out: Residual activity (%) 5ay

`Fc1ccc(CNc2ncnc3ccc(F)cc23)cc1` [5aa, 6-Fluoro-N-(4-fluorobenzyl)-4-Quinazolinamine] gave a remaining activity at 10 µM [1, 6] of 101%, a remaining activity at 10 µM [2, 6] of 58% and a remaining activity at 10 µM [3, 6] of 121%. It also gave a remaining activity at 10 µM [4, 6] of 103% and a remaining activity at 10 µM [5, 6] of 95%.
In the case of `Fc1ccc(CCNc2ncnc3ccc(F)cc23)cc1` [5as, 6-Fluoro-N-[2-(4-Fluorophenyl)Ethyl]-4-Quinazolinamine], the remaining activity at 10 µM [1, 7] is reported as 90%, the remaining activity at 10 µM [2, 7] is reported as 81% and the remaining activity at 10 µM [3, 7] is reported as 112%. The remaining activity at 10 µM [4, 7] was 96% and the remaining activity at 10 µM [5, 7] was 98%.
Work on `Fc1ccc2ncnc(NCCc3ccc(Cl)cc3)c2c1` [5at, N-[2-(4-Chlorophenyl)Ethyl]-6-Fluoro-4-Quinazolinamine] yielded a remaining activity at 10 µM [1, 8] of 91%, a remaining activity at 10 µM [2, 8] of 72% and a remaining activity at 10 µM [3, 8] of 117%. It also gave a remaining activity at 10 µM [4, 8] of 79% and a remaining activity at 10 µM [5, 8] of 88%.
Work on `COc1ccc2ncnc(Nc3cccc(F)c3)c2c1` [5ay, N-(3-Fluorophenyl)-6-Methoxy-4-Quinazolinamine] yielded a remaining activity at 10 µM [1, 9] of 87%, a remaining activity at 10 µM [2, 9] of 64% and a remaining activity at 10 µM [3, 9] of 110%. The remaining activity at 10 µM [4, 9] was 113% and the remaining activity at 10 µM [5, 9] was 99%.
